Blank lines part the entries; values can stand above or below the molecule they belong to.
What was measured:
[1] = test system: high fat diet induced rat model; assay: Oral delivery of anti-leptin antibody or leptin protein in high fat diet induced rat model; type: in vivo
Description: The inventors have developed an oral antibody or protein delivery platform and investigated feasibility using an anti-leptin antibody. […] The oral delivery vehicle facilitated enhancement of intestinal penetration of the antibody as well as protect the antibody from being damaged within the stomach in presence of acidic gastric juice. […] An oral dose of 5-10 μg leptin protein resulted 10-20% body weight reduction compared to the untreated high fat diet rat. […] Treated groups show less cholesterol contents in their blood which is within the normal range in opposed to the untreated animal that are observed with high cholesterol content.

[2] = test system: high fat diet rat; assay: Rat animal model, high fat diet with CAGE-Leptin or BG-leptin treatment (body weight, food consumption); type: in vivo
Description: Materials and Methods. Rat Animal Model. Rats are fed normal diet for 5 weeks, both male and female, body weight and food consumption is measured. Animals are fed a high fat diet for 5 weeks, body weight and food consumption is measured. Animals are fed high fat diet with CAGE-Leptin treatment for 5 weeks, body weight and food consumption is measured. Animals are fed high fat diet with BG-leptin treatment for 5 weeks, body weight and food consumption is measured.
Four groups of male were getting high fat diet for 2 weeks and then we start administer with cage, cage-leptin ab and leptin ab treatments (FIG. 3).

[3] = Beta glucan gel mediated oral delivery of nutraceuticals (absorption, pharmacokinetics)
Description: Beta-glucan compositions can be used to delivery other nutrients or therapeutic molecule via oral delivery.

Molecule: leptin protein: Leptin protein (GenBank NP-000221), protein hormone of approx. 16 kDa formed by 146 amino acids
body weight reduction compared to untreated high fat diet rat ([1]; oral dose of 5-10 μg): 10-20% | production of anti leptin antibody ([1]; oral leptin protein): results in production anti leptin antibody | fat content in body ([1]; treated high fat diet rat): significantly less fat content | food consumption, male rat ([2]; male rats on high fat diet, versus high fat and regular diet control groups, FIG. 4 and FIG. 5): lower amount of food | body weight gain, male rat ([2]; male rats, FIG. 2): lower than regular and high fat diet male control group

enhancement of pharmacokinetics ([3]; rat, in vivo, po): 15-20 folds
Molecule: vitamin B12

Molecule: O=S(=O)([O-])[O-].[Fe+2] [iron sulfate]
constipation problem associated with oral delivery ([3]; enhanced absorption by beta glucan): mitigation of constipation problem | absorption enhanced by Beta glucan ([3]; with Beta glucan, given orally): 60%

enhancement of pharmacokinetics ([3]; rat, in vivo, po): 10 folds
Molecule: CC/C=C\C/C=C\C/C=C\C/C=C\C/C=C\C/C=C\CCC(=O)O [Docosahexaenoic acid, docosahexaenoic acid]

enhancement of pharmacokinetics ([3]; Beta glucan mediated oral delivery, compared with free oral delivery, thioctic acid tested in rat): 10-20 folds
Molecule: O=C(O)CCCCC1CCSS1 (racemic) [DL-thioctic acid]
